Tests used:
[1] = Oral bioavailability in rat at 2 mg/kg; type: ADME, organism-based; settings: in vivo
Cytochrome P450 2C9 = Cytochrome P450 2C9 (Homo sapiens, UniProt P11712); experiment: Inhibition of human CYP2C9; type: ADME
CYP450 = CYP450 (Homo sapiens, UniProt P04798+P05177+P05181+P08684+P10632+P10635+P11509+P11712+P13584+P20813+P20815+P20853+P24462+P24903+P33260+P33261+P51589+P78329+P98187+Q02928+Q08477+Q16678+Q16696+Q5TCH4+Q6VVX0+Q7Z449+Q8TAV3+Q96SQ9+Q9HB55); experiment: Inhibition of human CYP450; type: ADME, protein assay
[2] = Volume of distribution at steady state in rat at 0.5 mg/kg, iv; type: ADME, organism-based; settings: in vivo
[3] = Volume of distribution at steady state in cynomolgus monkey at 1 mg/kg, iv; type: ADME, organism-based, Macaca fascicularis; settings: in vivo
hERG = hERG (Homo sapiens, UniProt Q12809); experiment: Inhibition of human ERG at 10 uM by patch clamp method relative to control
[4] = target: Indoleamine 2,3-dioxygenase 1 (Mus musculus) (UniProt P28776); experiment: In vivo inhibition of IDO1 in nu/nu mouse xenografted with human SK-OV-3 cells assessed as reduction in kynurenine level at 30 mg/kg, po qd by HPLC-MS/MS analysis relative to control; type: functional, organism-based
in vitro = settings: mouse, liver microsomes
Description: Metabolic stability in mouse liver microsomes assessed as parent compound remaining at 0.5 uM measured after 10 mins

[5] = Oral bioavailability in dog at 5 mg/kg; type: ADME, organism-based, Canis lupus familiaris; settings: in vivo
[6] = AUC in dog at 5 mg/kg, po; type: ADME, organism-based, Canis lupus familiaris; design: dose 5 mg/kg; settings: in vivo
[7] = Metabolic stability in dog hepatocytes assessed as CYP450-mediated compound metabolism by measuring half life; type: ADME, cell-based, Canis lupus familiaris, Hepatocyte
Cytochrome P450 2C8 = target: T1, Cytochrome P450 2C8 (Homo sapiens, UniProt P10632); experiment: Inhibition of human CYP2C8; type: ADME
T1 sequence (P10632 whole entry): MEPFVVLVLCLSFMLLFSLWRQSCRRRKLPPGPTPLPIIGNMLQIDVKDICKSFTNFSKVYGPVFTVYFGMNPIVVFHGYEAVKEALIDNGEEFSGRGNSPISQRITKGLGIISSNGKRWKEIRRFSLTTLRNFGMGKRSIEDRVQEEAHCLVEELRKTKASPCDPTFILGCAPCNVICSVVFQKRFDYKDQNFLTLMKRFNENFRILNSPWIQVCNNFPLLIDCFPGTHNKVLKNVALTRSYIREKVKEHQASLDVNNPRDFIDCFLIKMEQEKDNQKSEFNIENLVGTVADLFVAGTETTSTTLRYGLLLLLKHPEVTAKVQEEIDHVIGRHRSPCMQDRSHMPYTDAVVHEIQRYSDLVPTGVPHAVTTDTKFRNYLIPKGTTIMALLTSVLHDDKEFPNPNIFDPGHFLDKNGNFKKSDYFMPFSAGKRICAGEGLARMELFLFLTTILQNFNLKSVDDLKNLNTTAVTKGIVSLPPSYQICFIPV

[8] = AUC in rat at 6 mg/kg, po; type: ADME, organism-based; design: dose 6 mg/kg; settings: in vivo
[9] = target: Neuronal acetylcholine receptor subunit alpha-7 (Homo sapiens, UniProt P36544); experiment: Inhibition of alpha7 nAChR (unknown origin)
Homo sapiens = species on record: Homo sapiens; experiment: Inhibition of sodium channel (unknown origin) at 10 uM and 1 to 4 Hz by patch clamp method relative to control
[10] = Metabolic stability in mouse hepatocytes assessed as UGT-mediated compound glucuronidation by measuring half life; type: ADME, cell-based, Hepatocyte
[11] = Half life in cynomolgus monkey at 1 mg/kg, iv; type: ADME, organism-based, Macaca fascicularis; settings: in vivo
[12] = Permeability across apical to basal side in human Caco-2 cells; type: ADME, cell-based; settings: read-out: permeability
[13] = Half life in rat at 0.5 mg/kg, iv; type: ADME, organism-based; settings: in vivo
[14] = Oral bioavailability in mouse at 6 mg/kg; type: ADME, organism-based; settings: in vivo
[15] = Metabolic stability in cynomolgus monkey hepatocytes assessed as CYP450-mediated compound metabolism by measuring half life; type: ADME, cell-based, Macaca fascicularis, Hepatocyte
[16] = AUC (0 to 24 hrs) in nu/nu mouse xenografted with human SK-OV-3 cells measured in tumor at 3 mg/kg, po qd by uHPLC-MS/MS analysis; type: ADME, organism-based; design: time < 24 hr, route oral, dose 3 mg/kg
[17] = AUC (0 to 24 hrs) in nu/nu mouse xenografted with human SK-OV-3 cells measured in tumor at 30 mg/kg, po qd by uHPLC-MS/MS analysis; type: ADME, organism-based; design: time < 24 hr, route oral, dose 30 mg/kg
[18] = AUC in mouse at 0.5 mg/kg, iv; type: ADME, organism-based; design: dose 0.5 mg/kg; settings: in vivo
[19] = AUC (0 to 24 hrs) in nu/nu mouse xenografted with human SK-OV-3 cells measured in tumor at 10 mg/kg, po qd by uHPLC-MS/MS analysis; type: ADME, organism-based; design: time < 24 hr, route oral, dose 10 mg/kg
[20] = target: Indoleamine 2,3-dioxygenase 1 (Mus musculus) (UniProt P28776); experiment: In vivo inhibition of IDO1 in nu/nu mouse xenografted with human SK-OV-3 cells assessed as reduction in kynurenine level at 10 mg/kg, po qd by HPLC-MS/MS analysis relative to control; type: functional, organism-based
[21] = Oral bioavailability in cynomolgus monkey at 5 mg/kg; type: ADME, organism-based, Macaca fascicularis; settings: in vivo
[22] = target: Acetylcholine receptor subunit alpha (Homo sapiens, UniProt P02708); experiment: Inhibition of alpha1 nAChR (unknown origin)
[23] = AUC in mouse at 6 mg/kg, po; type: ADME, organism-based; design: dose 6 mg/kg; settings: in vivo
[24] = Metabolic stability in dog hepatocytes assessed as UGT-mediated compound glucuronidation by measuring half life; type: ADME, cell-based, Canis lupus familiaris, Hepatocyte
[25] = target: Indoleamine 2,3-dioxygenase 1 (Mus musculus) (UniProt P28776); experiment: In vivo inhibition of IDO1 in nu/nu mouse xenografted with human SK-OV-3 cells assessed as reduction in kynurenine level at 3 mg/kg, po qd by HPLC-MS/MS analysis relative to control; type: functional, organism-based
[26] = AUC in cynomolgus monkey at 5 mg/kg, po; type: ADME, organism-based, Macaca fascicularis; design: dose 5 mg/kg; settings: in vivo
[27] = Permeability across basal to apical side in human Caco-2 cells; type: ADME, cell-based; settings: read-out: permeability
[28] = target: T2, Indoleamine 2,3-dioxygenase 1 (Homo sapiens, UniProt P14902); experiment: Inhibition of IDO1 in IFNgamma-stimulated human HeLa cells preincubated for 2 hrs followed by IFNgamma stimulation and measured after 18 hrs by
[29] = AUC in dog at 1 mg/kg, iv; type: ADME, organism-based, Canis lupus familiaris; design: dose 1 mg/kg; settings: in vivo
[30] = target: T2, Indoleamine 2,3-dioxygenase 1; experiment: Inhibition of IDO1 in IFNgamma/LPS-stimulated human whole blood preincubated for 4 hrs followed by IFNgamma/LPS stimulation and incubated for 18 hrs by Rapid-fire mass spectrometry analysis; type: tissue-based
[31] = Volume of distribution at steady state in dog at 1 mg/kg, iv; type: ADME, organism-based, Canis lupus familiaris; settings: in vivo
[32] = target: UDP-glucuronosyltransferases (UGTs) (Homo sapiens, UniProt O60656+O75310+O75795+P06133+P0DTE4+P0DTE5+P16662+P19224+P22309+P22310+P35503+P35504+P36537+P54855+Q6UWM9+Q9BY64+Q9HAW7+Q9HAW8+Q9HAW9); experiment: Metabolic stability in human hepatocytes assessed as UGT-mediated compound glucuronidation by measuring half life; type: ADME, cell-based, Hepatocyte
[33] = AUC in cynomolgus monkey at 1 mg/kg, iv; type: ADME, organism-based, Macaca fascicularis; design: dose 1 mg/kg; settings: in vivo
alpha7 nAChR = alpha7 nAChR (Homo sapiens, UniProt P36544); experiment: Inhibition of alpha7 nAChR (unknown origin) relative to control; settings: read-out: Imax
Chain of alpha7 nAChR (P36544 whole entry): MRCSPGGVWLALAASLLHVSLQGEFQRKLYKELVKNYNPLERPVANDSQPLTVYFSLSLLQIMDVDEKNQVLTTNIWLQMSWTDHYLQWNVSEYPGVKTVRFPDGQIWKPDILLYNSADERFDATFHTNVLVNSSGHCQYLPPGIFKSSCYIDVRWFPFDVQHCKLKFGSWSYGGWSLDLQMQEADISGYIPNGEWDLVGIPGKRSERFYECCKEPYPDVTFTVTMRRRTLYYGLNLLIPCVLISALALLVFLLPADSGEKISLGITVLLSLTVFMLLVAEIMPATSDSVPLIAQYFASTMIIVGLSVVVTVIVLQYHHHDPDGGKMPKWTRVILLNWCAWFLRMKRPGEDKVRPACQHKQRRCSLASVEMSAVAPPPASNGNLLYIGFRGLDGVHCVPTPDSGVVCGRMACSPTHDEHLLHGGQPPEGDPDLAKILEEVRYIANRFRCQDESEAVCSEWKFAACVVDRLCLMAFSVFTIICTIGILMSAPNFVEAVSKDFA

Chain of Indoleamine 2,3-dioxygenase 1 (Mus musculus) (P28776 whole entry, looked up): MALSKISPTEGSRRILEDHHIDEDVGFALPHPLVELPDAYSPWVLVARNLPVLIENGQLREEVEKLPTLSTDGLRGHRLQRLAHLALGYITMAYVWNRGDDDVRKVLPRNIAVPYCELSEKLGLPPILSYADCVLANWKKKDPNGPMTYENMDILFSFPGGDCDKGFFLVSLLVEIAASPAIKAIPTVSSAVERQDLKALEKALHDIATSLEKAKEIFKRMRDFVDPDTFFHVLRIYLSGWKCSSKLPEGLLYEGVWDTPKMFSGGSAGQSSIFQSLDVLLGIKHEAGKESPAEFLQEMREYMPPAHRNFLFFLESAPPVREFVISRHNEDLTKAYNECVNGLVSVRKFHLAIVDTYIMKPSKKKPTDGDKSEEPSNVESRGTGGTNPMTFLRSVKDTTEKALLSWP
T2 sequence (P14902 whole entry): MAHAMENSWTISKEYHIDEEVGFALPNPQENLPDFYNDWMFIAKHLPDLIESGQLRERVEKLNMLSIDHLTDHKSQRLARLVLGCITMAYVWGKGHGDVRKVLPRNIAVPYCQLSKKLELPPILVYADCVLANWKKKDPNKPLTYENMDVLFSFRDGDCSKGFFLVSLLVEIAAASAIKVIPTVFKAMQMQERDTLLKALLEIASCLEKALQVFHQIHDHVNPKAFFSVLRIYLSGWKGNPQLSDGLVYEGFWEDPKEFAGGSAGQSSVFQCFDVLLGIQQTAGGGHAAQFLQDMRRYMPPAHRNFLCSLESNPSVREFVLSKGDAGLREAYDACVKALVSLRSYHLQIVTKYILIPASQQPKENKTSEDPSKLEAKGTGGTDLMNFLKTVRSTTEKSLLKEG
Chain of hERG (Q12809 whole entry): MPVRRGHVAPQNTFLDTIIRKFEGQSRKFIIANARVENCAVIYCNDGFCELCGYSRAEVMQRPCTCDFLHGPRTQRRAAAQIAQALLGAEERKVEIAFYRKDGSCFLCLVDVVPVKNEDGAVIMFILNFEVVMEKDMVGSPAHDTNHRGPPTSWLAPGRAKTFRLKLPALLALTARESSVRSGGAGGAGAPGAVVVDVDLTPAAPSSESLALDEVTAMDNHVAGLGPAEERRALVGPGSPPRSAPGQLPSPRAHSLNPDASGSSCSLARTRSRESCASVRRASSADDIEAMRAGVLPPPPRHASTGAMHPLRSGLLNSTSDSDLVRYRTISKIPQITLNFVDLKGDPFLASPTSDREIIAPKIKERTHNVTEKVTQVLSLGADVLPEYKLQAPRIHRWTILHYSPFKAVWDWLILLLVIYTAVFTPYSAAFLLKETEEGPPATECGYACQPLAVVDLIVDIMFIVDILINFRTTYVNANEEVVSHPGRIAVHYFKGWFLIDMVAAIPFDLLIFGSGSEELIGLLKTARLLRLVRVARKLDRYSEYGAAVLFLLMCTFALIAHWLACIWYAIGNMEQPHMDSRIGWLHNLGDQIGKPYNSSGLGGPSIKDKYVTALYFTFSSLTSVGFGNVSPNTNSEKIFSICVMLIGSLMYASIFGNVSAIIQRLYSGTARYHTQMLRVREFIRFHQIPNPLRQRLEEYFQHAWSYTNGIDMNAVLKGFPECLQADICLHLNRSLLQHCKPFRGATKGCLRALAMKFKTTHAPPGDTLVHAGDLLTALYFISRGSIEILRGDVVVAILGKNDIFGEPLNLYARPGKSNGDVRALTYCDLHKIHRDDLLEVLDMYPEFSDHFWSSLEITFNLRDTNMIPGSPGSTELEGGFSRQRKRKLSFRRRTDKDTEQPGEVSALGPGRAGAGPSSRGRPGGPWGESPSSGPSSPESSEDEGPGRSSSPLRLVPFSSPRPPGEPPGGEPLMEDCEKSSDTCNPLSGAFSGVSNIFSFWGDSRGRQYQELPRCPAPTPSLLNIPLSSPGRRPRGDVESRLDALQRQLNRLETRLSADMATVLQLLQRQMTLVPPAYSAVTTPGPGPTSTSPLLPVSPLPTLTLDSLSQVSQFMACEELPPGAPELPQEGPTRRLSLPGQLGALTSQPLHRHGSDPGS
Chain of Neuronal acetylcholine receptor subunit alpha-7 (P36544 whole entry): as the sequence (P36544 whole entry) above
Chain of Acetylcholine receptor subunit alpha (P02708 whole entry): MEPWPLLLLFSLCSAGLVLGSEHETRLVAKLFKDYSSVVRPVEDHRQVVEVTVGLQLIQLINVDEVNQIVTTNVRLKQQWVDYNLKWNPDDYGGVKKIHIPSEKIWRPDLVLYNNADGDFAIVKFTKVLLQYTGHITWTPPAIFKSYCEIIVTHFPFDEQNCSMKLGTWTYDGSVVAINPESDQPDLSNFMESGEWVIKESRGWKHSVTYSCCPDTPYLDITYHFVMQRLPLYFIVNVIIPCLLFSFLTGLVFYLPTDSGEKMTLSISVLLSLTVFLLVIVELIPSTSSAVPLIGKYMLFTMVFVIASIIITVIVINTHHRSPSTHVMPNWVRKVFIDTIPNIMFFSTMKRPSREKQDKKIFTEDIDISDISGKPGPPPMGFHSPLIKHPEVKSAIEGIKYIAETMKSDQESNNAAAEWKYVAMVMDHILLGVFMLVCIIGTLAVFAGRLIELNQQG
Chain of Cytochrome P450 2C9 (P11712 whole entry): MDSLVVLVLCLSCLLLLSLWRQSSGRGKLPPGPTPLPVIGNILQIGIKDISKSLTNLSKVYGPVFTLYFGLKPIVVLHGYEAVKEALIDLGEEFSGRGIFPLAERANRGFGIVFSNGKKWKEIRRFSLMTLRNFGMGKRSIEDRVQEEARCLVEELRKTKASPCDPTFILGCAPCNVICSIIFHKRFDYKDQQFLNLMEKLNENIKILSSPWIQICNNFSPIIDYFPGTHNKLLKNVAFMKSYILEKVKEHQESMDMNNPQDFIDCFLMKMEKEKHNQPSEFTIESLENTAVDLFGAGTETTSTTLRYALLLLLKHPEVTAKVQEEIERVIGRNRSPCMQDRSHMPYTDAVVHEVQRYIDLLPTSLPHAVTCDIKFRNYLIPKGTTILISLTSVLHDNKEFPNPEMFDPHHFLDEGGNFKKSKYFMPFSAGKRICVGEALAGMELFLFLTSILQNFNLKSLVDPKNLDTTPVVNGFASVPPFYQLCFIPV

bioavailability [1]: 127% | IC50 (Cytochrome P450 2C9): 740 nM | IC50 (CYP450): > 15000 nM | Vdss [2]: 0.97 L/kg | Vdss [3]: 1 L/kg | inhibition [4]: 59% | remaining at 10 min, 0.5 µM (in vitro): 21% | bioavailability [5]: 39% | AUC [6]: 17.4 µM·h | half-life [7]: 10 min | IC50 (Cytochrome P450 2C8): 1390 nM | AUC [8]: 28.2 µM·h | IC50 [9]: > 6000 nM | inhibition (Homo sapiens): < 20% | half-life [10]: > 120 min | t1/2 [11]: 2 min | Papp A→B [12]: 8.8 ×10⁻⁶ cm/s | t1/2 [13]: 4 min | F [14]: 152% | half-life [15]: 2 min | AUC at 24 h [16]: 9.6 µM·h | AUC at 24 h [17]: 61 µM·h | AUC [18]: 0.69 µM·h | AUC at 24 h [19]: 21.1 µM·h | inhibition [20]: 58% | bioavailability [21]: 42% | IC50 [22]: 12300 nM | AUC [23]: 12.6 µM·h | half-life [24]: 33 min | inhibition [25]: 45% | AUC [26]: 7.1 µM·h | Papp B→A [27]: 5.5 ×10⁻⁶ cm/s | IC50 [28]: 2 nM | AUC [29]: 8.7 µM·h | IC50 [30]: 25 nM | Vdss [31]: 3.87 L/kg | half-life [32]: 120 min | AUC [33]: 3.4 µM·h | Emax (alpha7 nAChR): 20%
Compound: C[C@@H](NC(=O)c1ccc(Cl)cc1)[C@H]1CC[C@@H](c2ccnc3ccc(F)cc32)CC1
inhibition at 10 µM (hERG): 87%

Source: ChEMBL document CHEMBL4673406, “Discovery and Preclinical Evaluation of BMS-986242, a Potent, Selective Inhibitor of Indoleamine-2,3-dioxygenase 1” (ACS Med Chem Lett, 2021)
